#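 Following 48 hours of exposure in 96-well plates, responses at five concentrations were used to interpolate endpoints linearly. Here, GI50 denotes the concentration required for 50% inhibition of growth.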 Calls of active or inactive are those of the source. No stated cut-off is given here; in the data, active = GI50 up to about 1.1 µM and inactive = higher.
# Legend:
# Assay in all cases: growth of human tumour cells (NCI), 48 h
# [1] = test system: SR
# [2] = test system: MDA-MB-435
# [3] = test system: TK-10
# [4] = test system: IGROV-1
# [5] = test system: OVCAR-8
# [6] = test system: OVCAR-5
# [7] = test system: UACC-257
# [8] = test system: OVCAR-4
# [9] = test system: SN12C
# [10] = test system: MDA-N
# [11] = test system: OVCAR-3
# [12] = test system: HCT-116
# [13] = test system: RPMI-8226
# [14] = test system: U-251
# [15] = test system: SF-295
# [16] = test system: EKVX
# [17] = test system: CCRF-CEM
# [18] = test system: HT-29
# [19] = test system: SW-620
# [20] = test system: BT-549
Structure (SMILES),GI50 [1],GI50 [2],GI50 [3],GI50 [4],GI50 [5],GI50 [6],GI50 [7],GI50 [8],GI50 [9],GI50 [10],GI50 [11],GI50 [12],GI50 [13],GI50 [14],GI50 [15],GI50 [16],GI50 [17],GI50 [18],GI50 [19],GI50 [20]
O=[N+]([O-])c1ccc(/C=C/c2cc(-c3ccccc3)nc3ccc4ccccc4c23)cc1,> 100 µM (inactive),> 100 µM (inactive),> 100 µM (inactive),> 100 µM (inactive),> 100 µM (inactive),> 100 µM (inactive),> 100 µM (inactive),> 100 µM (inactive),> 100 µM (inactive),> 100 µM (inactive),> 100 µM (inactive),> 100 µM (inactive),> 100 µM (inactive),> 100 µM (inactive),> 100 µM (inactive),> 100 µM (inactive),> 100 µM (inactive),> 100 µM (inactive),> 100 µM (inactive),–
CN1C(=O)C2(Cc3cn(C45CC67SSC(CO)(C(=O)N6C4Nc4ccccc45)N(C)C7=O)c4ccccc34)SSC1(CO)C(=O)N2C (stereo not given),< 0.01 µM (active),0.0335 µM (active),0.0243 µM (active),0.0165 µM (active),0.0206 µM (active),0.12 µM (active),0.0188 µM (active),< 0.01 µM (active),0.0147 µM (active),0.0198 µM (active),0.0163 µM (active),0.0113 µM (active),0.0139 µM (active),0.0369 µM (active),0.309 µM (active),0.0282 µM (active),1.52 µM (inactive),< 0.01 µM (active),0.0108 µM (active),–
Cc1nc2cccc(F)c2c(=O)n1-c1nnc(C2CC2)s1,> 10 µM (inactive),> 10 µM (inactive),> 10 µM (inactive),> 10 µM (inactive),> 10 µM (inactive),> 10 µM (inactive),> 10 µM (inactive),> 10 µM (inactive),> 10 µM (inactive),> 10 µM (inactive),> 10 µM (inactive),> 10 µM (inactive),> 10 µM (inactive),> 10 µM (inactive),> 10 µM (inactive),> 10 µM (inactive),> 10 µM (inactive),> 10 µM (inactive),> 10 µM (inactive),–
COC(=O)[C@@H]1C=C[C@@H](C#N)n2c(=O)n(-c3ccccc3)c(=O)n21,20.6 µM (inactive),42 µM (inactive),82.2 µM (inactive),32.6 µM (inactive),23.3 µM (inactive),29.4 µM (inactive),39.4 µM (inactive),36.3 µM (inactive),26.2 µM (inactive),–,13.9 µM (inactive),24.5 µM (inactive),31.8 µM (inactive),33.8 µM (inactive),23.8 µM (inactive),35.5 µM (inactive),25.9 µM (inactive),31.1 µM (inactive),41.9 µM (inactive),34 µM (inactive)
O=C1CCN/C(=N\C(=O)C(F)(F)F)N1CCc1c[nH]c2ccccc12,–,> 100 µM (inactive),> 100 µM (inactive),> 100 µM (inactive),> 100 µM (inactive),> 100 µM (inactive),> 100 µM (inactive),> 100 µM (inactive),> 100 µM (inactive),> 100 µM (inactive),> 100 µM (inactive),> 100 µM (inactive),> 100 µM (inactive),> 100 µM (inactive),> 100 µM (inactive),> 100 µM (inactive),> 100 µM (inactive),> 100 µM (inactive),> 100 µM (inactive),–
Cc1ccc(NC(=O)CSC(N)=O)cc1C,34.7 µM (inactive),> 100 µM (inactive),> 100 µM (inactive),> 100 µM (inactive),> 100 µM (inactive),> 100 µM (inactive),> 100 µM (inactive),> 100 µM (inactive),> 100 µM (inactive),–,> 100 µM (inactive),> 100 µM (inactive),29.3 µM (inactive),> 100 µM (inactive),> 100 µM (inactive),> 100 µM (inactive),> 100 µM (inactive),> 100 µM (inactive),> 100 µM (inactive),–
CC1C(=O)CC[C@@]2(C)C(=O)CCCC12O (stereo not given in full),> 100 µM (inactive),> 100 µM (inactive),> 100 µM (inactive),> 100 µM (inactive),–,> 100 µM (inactive),> 100 µM (inactive),> 100 µM (inactive),> 100 µM (inactive),> 100 µM (inactive),> 100 µM (inactive),> 100 µM (inactive),> 100 µM (inactive),> 100 µM (inactive),> 100 µM (inactive),> 100 µM (inactive),–,> 100 µM (inactive),> 100 µM (inactive),–
CCOc1c(OC)cc(C2c3cc4c(c(OCC)c3CC3COC(=O)C32)OCO4)cc1OC (stereo not given),0.247 µM (active),0.272 µM (active),5.87 µM (inactive),2.41 µM (inactive),2.11 µM (inactive),3.24 µM (inactive),0.912 µM (active),8.28 µM (inactive),2.21 µM (inactive),–,1.12 µM (active),2.16 µM (inactive),3.75 µM (inactive),1.63 µM (inactive),1 µM (active),12.7 µM (inactive),2.67 µM (inactive),2.47 µM (inactive),1.24 µM (inactive),2.7 µM (inactive)
COc1cc(C2c3cc4c(cc3[C@@H](Nc3ccccc3)C3COC[C@H]23)OCO4)cc(OC)c1O (stereo not given in full),0.465 µM (active),7.13 µM (inactive),7.46 µM (inactive),8.34 µM (inactive),2.82 µM (inactive),2.36 µM (inactive),14.6 µM (inactive),16.9 µM (inactive),1.9 µM (inactive),7.35 µM (inactive),–,1.41 µM (inactive),0.631 µM (active),0.897 µM (active),0.485 µM (active),15.4 µM (inactive),0.235 µM (active),3.06 µM (inactive),1.81 µM (inactive),–
Nn1c(CCCCCCCCc2nnc(COc3ccc4ccccc4c3O)n2N)nnc1COc1ccc2ccccc2c1O,–,29.9 µM (inactive),49.2 µM (inactive),4.92 µM (inactive),–,14.2 µM (inactive),39.9 µM (inactive),34.1 µM (inactive),39.3 µM (inactive),–,–,9.75 µM (inactive),22.3 µM (inactive),41.4 µM (inactive),28.6 µM (inactive),43.7 µM (inactive),–,25.3 µM (inactive),52.7 µM (inactive),22.1 µM (inactive)
"COc1ccc(-c2coc3cc(OC)cc(O)c3c2=O)cc1 [4',7-DIMETHOXY-5-HYDROXYGENISTEIN]",> 100 µM (inactive),> 100 µM (inactive),29.6 µM (inactive),> 100 µM (inactive),> 100 µM (inactive),> 100 µM (inactive),> 100 µM (inactive),> 100 µM (inactive),> 100 µM (inactive),> 100 µM (inactive),> 100 µM (inactive),> 100 µM (inactive),> 100 µM (inactive),43.3 µM (inactive),> 100 µM (inactive),> 100 µM (inactive),> 100 µM (inactive),> 100 µM (inactive),> 100 µM (inactive),–

# From ChEMBL document CHEMBL1201862, “PubChem BioAssay data set” (2004)
